The values that follow come from paper PMC9311539, “Antibacterial Activity against Clinical Isolates and In Vivo Efficacy of Coralmycins” (Antibiotics, 2022).

On the set-up of data set [1]: method as in PMID 34123255. To be noted: cited from earlier work.
Data set [2] has as its system E. coli ATCC 25922. Further details: method as in PMID 34123255. The conditions noted are these: cited from earlier work.
In data set [3] the test system is E. coli ATCC 25922. Also on record: method as in PMID 34123255. To be noted: 37.5 mg/kg/day; cited from earlier work.
The subject of another data set is MSSA. The data set is described as follows: MIC, broth microdilution, clinical isolates: MSSA. Type of data set: cell-based. The conditions noted are these: Staphylococcus aureus, 26 clinical isolates. In outline:
(§1)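 Using twofold serial dilutions in CAMHB, blood-supplemented (5% sheep) for pneumococci, the lowest agent concentration that prevented visible growth was taken as the MIC. Inoculum: 5 × 10^4 CFU/well; incubation: 35 °C for 18–20 h; strains were Korean clinical isolates.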

Another data set relates to MRSA. Briefly: MIC, broth microdilution, clinical isolates: MRSA. Type of data set: cell-based, Staphylococcus aureus. In outline:
as §1

For data set [4], the system named is CNS (coagulase-negative staphylococci). The data set is described as follows: MIC, broth microdilution, clinical isolates: CNS. In kind it is cell-based. To be noted: 31 clinical isolates. In outline:
as §1
On the technique in general: In broth dilution the organism is exposed to a series of concentrations in liquid medium.

The next data set deals with VRE. The data set is described as follows: MIC, broth microdilution, clinical isolates: VRE. In kind it is cell-based, vancomycin-resistant Enterococcus. To be noted: Enterococcus, VRE, 46 clinical isolates. In outline:
as §1

The next data set concerns S. pneumoniae. Briefly: MIC, broth microdilution, clinical isolates: S. pneumoniae. In kind it is cell-based, Streptococcus pneumoniae. The conditions noted are these: Streptococcus pneumoniae, 27 clinical isolates. A digest of the protocol:
as §1

For data set [5], the system named is Vancomycin-sensitive E. faecalis. The data set is described as follows: MIC, broth microdilution, clinical isolates: vancomycin-sensitive E. faecalis. In kind it is cell-based, Enterococcus faecalis. The conditions noted are these: Enterococcus faecalis, 32 clinical isolates. A digest of the protocol:
as §1

The subject of data set [6] is Vancomycin-sensitive E. faecium. The data set is described as follows: MIC, broth microdilution, clinical isolates: vancomycin-sensitive E. faecium. In kind it is cell-based, Enterococcus faecium. To be noted: Enterococcus faecium, 32 clinical isolates. A digest of the protocol: as §1
The subject of data set [7] is S. aureus Giorgio. Briefly: MIC against S. aureus Giorgio. In kind it is cell-based, Staphylococcus aureus. To be noted: Staphylococcus aureus; read-out: MIC. The procedure: (§2) The MICs of the antimicrobial agents were determined by a twofold microdilution broth method, as described by the Clinical and Laboratory Standards Institute. Briefly, test organisms were grown on Mueller–Hinton agar (MHA, BD Difco, Sparks, MD, USA) plates, subcultured into cation-adjusted Mueller–Hinton broth (CAMHB, BD Difco, Sparks, MD, USA), and incubated for 18 h at 35 °C. For S. pneumoniae culture, 5% sheep blood (Hanil Comed, Seongnam, Korea) was added. The cultured bacteria were diluted using phosphate-buffered saline (PBS) to achieve a bacterial cell density of approximately 5 × 10^6 CFU/mL. All test organisms were loaded into 96-well plates containing serial dilutions of the antimicrobial agents to achieve a concentration of 5 × 10^4 CFU/well. The plates were incubated at 35 °C for 18–20 h and examined for bacterial growth.

Data set [8] has as its system S. pneumoniae ATCC49619. Briefly: MIC against S. pneumoniae ATCC49619. To be noted: Streptococcus pneumoniae, ATCC49619; read-out: MIC. In kind it is cell-based. The method, then: as §2
Data set [9] concerns MRSA CCARM 3167. Briefly: MIC against MRSA CCARM 3167. Type of data set: cell-based. The conditions noted are these: Staphylococcus aureus; read-out: MIC. The method, then: as §2
The subject of data set [10] is VRE 3. The data set is described as follows: MIC against VRE 3. Type of data set: cell-based, vancomycin-resistant Enterococcus. The conditions noted are these: Enterococcus, read-out: MIC. The method, then:
as §2

Data set [11] deals with S. aureus Giorgio. The data set is described as follows: Time-kill assay, S. aureus Giorgio. In kind it is cell-based, Staphylococcus aureus. In outline:
(§3)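 Inocula of 10^5 CFU/mL in CAMHB (plus 5% sheep blood for S. pneumoniae), preincubated 2 h, then sampled at 0, 2, 4, 6 and 24 h; viable counts on drug-free MHA after 20 h. Bactericidal means a 3 log CFU/mL (99.9%) drop from the inoculum; bacteriostatic means a 0–3 log drop.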

For data set [12], the system named is S. pneumoniae ATCC49619. Briefly: Time-kill assay, S. pneumoniae ATCC49619. Type of data set: cell-based, Streptococcus pneumoniae. A digest of the protocol: as §3
For data set [13], the system named is MRSA CCARM 3167. Briefly: Time-kill assay, MRSA CCARM 3167. Type of data set: cell-based, Staphylococcus aureus. A digest of the protocol: as §3
Data set [14] concerns VRE 3. The data set is described as follows: Time-kill assay, VRE 3. In kind it is cell-based, vancomycin-resistant Enterococcus. The procedure: Time-kill analysis was performed by the NCCLS M26-A method. The test organisms (S. aureus Giorgio, S. pneumoniae ATCC49619, MRSA CCARM 3167, and VRE 3) incubated in CAMHB for 18 h at 35 °C were diluted to 10^5 CFU/mL with fresh CAMHB, and the diluted cultures were preincubated for 2 h. For S. pneumoniae culture, 5% sheep blood (Hanil Comed, Seongnam, Korea) was added. […] Culture aliquots (0.1 mL) were removed after 0, 2, 4, 6 and 24 h of incubation, and serial 10-fold dilutions were prepared in saline as needed. The numbers of viable cells were determined on drug-free MHA plates after 20 h of incubation. A compound was considered bactericidal if the original inoculum was reduced by 3 log CFU/mL (99.9%) at each concentration or was considered bacteriostatic if the inoculum was reduced by 0–3 log CFU/mL.

Data set [15] deals with S. aureus Giorgio. Briefly: Neutropenic mouse thigh infection model. In kind it is in vivo, female ICR mice. The procedure: (§4) For the respiratory tract infection model, neutropenic mice were anesthetized and intranasally inoculated with a 50 μL suspension of S. pneumoniae ATCC49619 (4.4 × 10^8 CFU/mL). For the thigh infection model, the neutropenic mice were administered an intramuscular injection of a 100 μL suspension of S. aureus Giorgio (1 × 10^6 CFU/mL) into both thighs. For both models, four mice were included in each group. At 2 h after infection, two mice were sacrificed, and the infected thighs or lungs (n = 4) were excised to determine the initial bacterial levels. […] At 24 h after infection, the mice were sacrificed by cervical dislocation; their thighs or lungs were removed, homogenized, serially diluted with saline, and plated onto MHA to count the number of bacteria remaining. The number of viable bacterial cells (CFU) in the thighs or lungs of vehicle- and drug-treated mice was determined.

Data set [16] deals with S. pneumoniae ATCC49619. The data set is described as follows: Neutropenic mouse respiratory tract infection model. Type of data set: in vivo, female ICR mice. The procedure: as §4
A further data set is described as follows: in vivo. The conditions noted are these: female, ICR, mouse, plasma.

Values after ≈ are worked out from the molar mass of the structure shown. Where two headings read alike, the source gives them in different places.

Usually AUC stands for the area under the concentration-time curve, a measure of exposure. A word on the Vdss: it is the apparent volume that relates the amount in the body to the concentration in plasma or blood. In general, bioavailability refers to dose-corrected exposure relative to a reference, in per cent. The term Cmax denotes the peak of the concentration-time curve. One may read the Tmax as the time at which the peak concentration occurs. The term MIC denotes the smallest concentration in the dilution series that meets the test's criterion for growth inhibition. As for `CC(C)Oc1c(NC(=O)c2ccc(NC(=O)C(CC(N)=O)NC(=O)c3ccc(NC(=O)c4ccc(C#N)cc4)cc3)cc2)ccc(C(=O)Nc2ccc(C(=O)O)cc2)c1O` (centres unmarked) [CN-DM-861], the “detection in tissues (thigh, kidney, lung)” value in data set [1] (after s.c. administration) is recorded as “well detected”. Further, in [1] (i.v. 5 mg/kg), the area under the curve (AUC) entry is on record as “approximately 2 μg·h/mL”, the T1/2 entry is on record as “approximately 1 h” and the Vdss is listed as 3.5 L/kg. The bioavailability in data set [1] (reported) is recorded as 25%. The AUC/MIC ratio in [1] (s.c. 5 mg/kg, MIC against E. coli ATCC 25922) is listed as 159.5. In data set [1] (s.c. 5 mg/kg), the area under the curve (AUC) is 517 ng·h/mL, the Cmax is on record as 128 ng/mL and the time to peak (Tmax) is on record as 1.7 h. In the data set on E. coli ATCC 25922 [2], the MIC is on record as 0.02 mg/L (≈ 0.0246 µM). Moreover, the “in vivo effect in three mouse models” value with E. coli ATCC 25922 [3] was “potent bactericidal effects”.
As a reminder, the MIC50 is an inhibitory concentration at the 50% level, which refers to growth in some studies and to a panel of isolates in others. As a reminder, the MIC90 is an inhibitory concentration at the 90% level, which refers to growth in some studies and to a panel of isolates in others. What is called half-life is the time needed for the level to fall by half in the phase considered. Take `CO[C@@H](C(N)=O)[C@H](NC(=O)c1ccc(NC(=O)c2ccc([N+](=O)[O-])cc2)cc1)C(=O)Nc1ccc(C(=O)Nc2ccc(C(=O)Nc3ccc(C(=O)O)cc3OC(C)C)c(O)c2OC(C)C)cc1` [DH-coralmycin A]: the MIC50 with MSSA (read-out: MIC50) amounted to 1 µg/mL (≈ 1.09 µM); in the data set with MRSA (Staphylococcus aureus, MRSA, 42 clinical isolates, read-out: MIC50) it was 4 µg/mL (≈ 4.35 µM); in data set [4] (read-out: MIC50), 1 µg/mL (≈ 1.09 µM); in the data set with VRE (read-out: MIC50), 4 µg/mL (≈ 4.35 µM); in the data set on S. pneumoniae (read-out: MIC50) it was 0.5 µg/mL (≈ 0.544 µM); in [5] (read-out: MIC50), 2 µg/mL (≈ 2.17 µM). In data set [6] (read-out: MIC50), the MIC50 turned out to be 1 µg/mL (≈ 1.09 µM). Further, the MIC90 in the data set with MSSA (read-out: MIC90) is 2 µg/mL (≈ 2.17 µM); in the data set with MRSA (Staphylococcus aureus, MRSA, 42 clinical isolates, read-out: MIC90), 8 µg/mL (≈ 8.7 µM); in data set [4] (read-out: MIC90) it was 16 µg/mL (≈ 17.4 µM); with VRE (read-out: MIC90) it was 16 µg/mL (≈ 17.4 µM); in the data set on S. pneumoniae (read-out: MIC90), 4 µg/mL (≈ 4.35 µM); in data set [5] (read-out: MIC90), 4 µg/mL (≈ 4.35 µM). For the same compound, the MIC90 in [6] (read-out: MIC90) amounted to 4 µg/mL (≈ 4.35 µM). Moreover, the “times less active than coralmycin A as evidenced by the MIC90” value in the data set on MRSA (against MRSA, CNS, and VRE) lay in the range of 8 to 16 times. Moreover, the MIC was found to be 0.06 µg/mL (≈ 0.0652 µM) with S. aureus Giorgio [7], 0.25 µg/mL (≈ 0.272 µM) in the data set on S. pneumoniae ATCC49619 [8], 0.25 µg/mL (≈ 0.272 µM) in the data set on MRSA CCARM 3167 [9] and 2 µg/mL (≈ 2.17 µM) in the data set on VRE 3 [10]. The time-kill activity result is given as “bacteriostatic (considered bacteriostatic if the inoculum was reduced by 0–3 log CFU/mL)” with S. aureus Giorgio [11] (1× MIC); “bactericidal (considered bactericidal if the original inoculum was reduced by 3 log CFU/mL (99.9%) at each concentration)” in the data set on S. aureus Giorgio [11] (2× and 4× MIC, 24 h); “bacteriostatic (considered bacteriostatic if the inoculum was reduced by 0–3 log CFU/mL)” with S. pneumoniae ATCC49619 [12] (1× MIC); “bactericidal (considered bactericidal if the original inoculum was reduced by 3 log CFU/mL (99.9%) at each concentration)” with S. pneumoniae ATCC49619 [12] (2× and 4× MIC, 24 h); “bacteriostatic (considered bacteriostatic if the inoculum was reduced by 0–3 log CFU/mL)” in the data set on MRSA CCARM 3167 [13] (1× MIC); “bactericidal (considered bactericidal if the original inoculum was reduced by 3 log CFU/mL (99.9%) at each concentration)” in the data set with MRSA CCARM 3167 [13] (2× and 4× MIC, 24 h). The time-kill activity result in the data set on VRE 3 [14] (1× MIC) was “bacteriostatic (considered bacteriostatic if the inoculum was reduced by 0–3 log CFU/mL)”; in the data set on VRE 3 [14] (2× and 4× MIC, 24 h), “bactericidal (considered bactericidal if the original inoculum was reduced by 3 log CFU/mL (99.9%) at each concentration)”. For the same compound, the “antibacterial effect in thigh infection model” value in the data set on S. aureus Giorgio [15] (20 mg/kg bid) is recorded as “almost no antibacterial effect”; with S. aureus Giorgio [15] (s.c. 4 and 20 mg/kg at 3 and 6 h after infection), “almost no antibacterial effect”. Moreover, the “in vivo effect (bacteriostatic or bactericidal)” value with S. pneumoniae ATCC49619 [16] (4 mg/kg bid s.c.) is “static effect”; in the data set with S. pneumoniae ATCC49619 [16] (20 mg/kg bid s.c.), “static effect”; in the data set on S. pneumoniae ATCC49619 [16] (100 mg/kg bid s.c.), “bactericidal effects”. Also, the “antibacterial effect in respiratory tract infection model” value in the data set on S. pneumoniae ATCC49619 [16] (first experiment, s.c. 4 and 20 mg/kg at 3 and 6 h after infection) is “significant antibacterial effects”. Besides, the “reduction of the starting bacterial burden compared to the 2-h control group” value with S. pneumoniae ATCC49619 [16] (second trial, s.c. 100 mg/kg bid) came out at 0.96 log10 CFU/lung. Moreover, the half-life in the data set “in vivo” (iv, 2 mg/kg) was 130 ± 64.8 min; in “in vivo” (sc, 20 mg/kg), 421 ± 73.2 min.
